Experimental data: patent US12121536B2, “Strontium based compositions and formulations for pain, pruritus, and inflammation” (Galleon Labs LLC, priority 2015, dated 2024)

What was measured:
[1] = Clinical observation: topical application, itching and erythema (flushing); assay type: in vivo, human; conditions: for itching and erythema of skin: 1% in water solution, 4×2 inch patch on inside forearm, one subject
Description: BHB acts on the same pathway that causes flushing in individuals who take high doses of niacin. A topical formulation containing BHB was evaluated to see if it induced itching and erythema. The BHB formulation was compared to a topical niacin formulation.
A 1% BHB in water solution was made and a 1% niacin in water solution was made. Unknown to the subject, the BHB formula was applied in a 4×2 inch patch on the inside left forearm and the niacin formula was applied in a 4×2 in patch on the inside right forearm. The skin was evaluated over a period of time.

[2] = emulsions with more than about 6-7% salt (about 2% elemental strontium)
[3] = target: TLR-4 (Homo sapiens, UniProt O00206); assay: Preliminary data in atopic dermatitis: TLR-4
[4] = system: TCN; conditions: strontium substitutes for calcium; cited from earlier work
[5] = system: MMP; assay: Preliminary data in atopic dermatitis: MMP
[6] = Topical application to skin for pain, itch, irritation; assay type: in vivo; conditions: simple solutions of strontium and water, no penetration enhancer
From the text: Without wishing to be bound by any one theory, it is believed that opening ion channels in the presence of strontium, allows greater levels of strontium to enter the nociceptor and shut down or decrease its activity. This is due to (1) strontium having a higher affinity than calcium for flowing into the ion channels and (2) the excessive amount of strontium ions present as compared to the physiological levels of calcium present. Furthermore, cysteine based antioxidants and strontium target different mechanisms to block nociception. The combination results in a synergistic affect
Most skin products are “pH balanced” to help maintain a healthy skin pH. […] While not wishing to be bound by any one theory, it is believed that the application of a low pH formulation on the skin activates acid sensitive ion channels such as ASIC and TRPV1 resulting in the opening of ion channels on the nociceptor. The opening of the ion channels in the presence of strontium allows greater levels of strontium to enter the nociceptor and shut down or decrease it activity. This is due to (1) strontium having a higher affinity than calcium for flowing into the ion channels and (2) the excessive amount of strontium ions present as compared to the physiological levels of calcium present. […]

[7] = system: HSV1; assay: Preliminary investigations: symptoms of HSV1; assay type: in vivo
From the text: Without wishing to be bound by any one theory, it is believed that strontium's ability to block NF-Kappa B contributes to minimizing the symptoms associated with an active infection. As mentioned above, HSV 1 and 2 require the activation of NF-Kappa B for de novo virus synthesis. By blocking NF-Kappa B, strontium is essentially stopping the infection at an early stage.

[8] = target: T1, IL-17 (Homo sapiens, UniProt Q16552); assay: Preliminary investigations in psoriasis: IL-17
T1 sequence (Q16552 24-155): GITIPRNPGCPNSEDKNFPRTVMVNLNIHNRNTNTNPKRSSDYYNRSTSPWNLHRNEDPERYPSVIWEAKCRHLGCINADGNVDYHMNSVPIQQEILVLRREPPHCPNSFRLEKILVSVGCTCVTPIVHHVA
From the text: (§1) Preliminary investigations indicate that strontium can break up the inflammatory/keratinocyte cycle of psoriasis, specifically by blocking the IL-17 and TNF-alpha. By targeting and blocking the two main pathways that activated dendritic cells use to trigger a psoriatic episode, strontium has immense potential as a therapeutic for psoriasis.

[9] = Preliminary investigations: pain of post herpetic neuralgia; assay type: in vivo
[10] = system: nociceptor; conditions: cited from earlier work
[11] = system: TCN; assay: Burning pain from acidic chemical peel (70% glycolic acid) mixed with strontium; assay type: in vivo; conditions: strontium mixed with 70% glycolic acid, pH 0.6
Description: Nociceptors also have a CaSR that inhibits nociceptor activation when the extracellular concentration of calcium is raised above normal, or if a similar concentration of strontium is administered. […] When strontium is mixed with the acid, burning pain and stinging is suppressed by 80% or more so that any remaining sensory irritation is not bothersome.

[12] = target: TNF-alpha (Homo sapiens, UniProt P01375); assay: Preliminary investigations in psoriasis: TNF-alpha
From the text: as §1

TLR-4, sequence (O00206 24-839, species assumed): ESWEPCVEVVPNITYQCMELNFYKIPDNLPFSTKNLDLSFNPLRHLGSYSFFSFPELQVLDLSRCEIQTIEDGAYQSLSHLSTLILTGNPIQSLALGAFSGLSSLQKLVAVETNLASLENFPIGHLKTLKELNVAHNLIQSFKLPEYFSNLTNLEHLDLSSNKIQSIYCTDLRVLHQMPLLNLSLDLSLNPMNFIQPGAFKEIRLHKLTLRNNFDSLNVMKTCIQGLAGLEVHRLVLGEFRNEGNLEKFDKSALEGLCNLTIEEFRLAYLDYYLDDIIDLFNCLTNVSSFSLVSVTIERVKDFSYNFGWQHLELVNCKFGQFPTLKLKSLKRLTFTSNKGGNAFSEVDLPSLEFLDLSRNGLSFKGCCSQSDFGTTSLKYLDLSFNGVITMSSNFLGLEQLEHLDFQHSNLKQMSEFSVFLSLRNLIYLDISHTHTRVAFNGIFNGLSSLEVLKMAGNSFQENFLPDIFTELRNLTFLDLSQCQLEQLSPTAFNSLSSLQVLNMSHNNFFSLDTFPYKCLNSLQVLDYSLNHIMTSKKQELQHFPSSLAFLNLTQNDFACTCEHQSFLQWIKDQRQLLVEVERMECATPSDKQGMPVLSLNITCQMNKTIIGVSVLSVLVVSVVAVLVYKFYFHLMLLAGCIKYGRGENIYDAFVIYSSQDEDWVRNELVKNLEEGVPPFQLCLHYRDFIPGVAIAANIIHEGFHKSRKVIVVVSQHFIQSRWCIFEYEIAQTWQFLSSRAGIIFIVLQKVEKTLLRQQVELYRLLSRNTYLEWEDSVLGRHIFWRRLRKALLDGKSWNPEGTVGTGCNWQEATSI
TNF-alpha, sequence (P01375 77-233 limits assumed, species assumed): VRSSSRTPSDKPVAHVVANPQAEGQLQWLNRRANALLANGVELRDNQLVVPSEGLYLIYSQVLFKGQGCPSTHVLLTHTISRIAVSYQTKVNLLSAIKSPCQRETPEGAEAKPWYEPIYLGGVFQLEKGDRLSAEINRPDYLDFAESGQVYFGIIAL

In the case of `CC(O)CC(=O)O` (stereo not drawn) [BHB, beta-hydroxybutyric acid], the “itching and erythema of skin” value [1] is reported as “did not redden or become itchy” and the flush/blush response ([1]; compared with niacin) is reported as “does not activate”.
In the case of `O=C(O)c1cccnc1` [niacin, nicotinic acid, reference compound], the “itching and erythema of skin” value [1] is reported as “began to redden and itch”.
In the case of `O.O.O.O.O.O.[Cl-].[Cl-].[Sr+2]` [strontium chloride hexahydrate], the emulsion stability [2] is reported as “tend to be unstable and separate”.
For `O=[N+]([O-])[O-].O=[N+]([O-])[O-].[Sr+2]` [strontium nitrate], the emulsion stability [2] was “tend to be unstable and separate”.
For `[Sr+2]` [strontium], the “blocking of TLR-4 activity” value [3] is given as “can block”, the “reduction of amplitude of synchronous neurotransmitter release” value [4] is given as “more than 90%” and the “blocking of MMP activity” value [5] is given as “can block”. For the same molecule, the “reducing pain and irritation” value [6] was “can be effective”, the “pain, itch, and rash/blister formation associated with HSV1” value [7] was “can reduce and or eliminate” and the “blocking of IL-17” value [8] was “blocking”. The “pain associated with PHN” value [9] was “can reduce or block”, the “ability to induce CICR relative to calcium” value [10] was “over a hundred-fold less active” and the “concentration reached in the ER, greater than calcium” value ([10]; not told) was “more than 150%”. For the same molecule, the “suppression of burning pain and stinging” value [11] was ≥ 80% and the “blocking of TNF-alpha” value [12] was “blocking”.
